In the supplement of paper PMC10307832:

Tests used:
Experiment in all cases: relative viability (nuclei count vs DMSO), 5 days (fraction); higher = more cells survive
[1] = compound: OCc1c[nH]c2ccccc12 [Indole-3-carbinol] + CC1(C)CCC(c2ccc(Cl)cc2)=C(CN2CCN(c3ccc(C(=O)NS(=O)(=O)c4ccc(N[C@H](CCN5CCOCC5)CSc5ccccc5)c(S(=O)(=O)C(F)(F)F)c4)cc3)CC2)C1 [Navitoclax] (partner 0.5 µM)
Summary of the method: (§1)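 For relative viability, nuclei counts in treated wells were divided by those in vehicle wells. Lung cancer cell lines had been pin-tool dosed in 1536-well plates the day after seeding and cultured for 5 days, then fixed and stained in one step (final 0.05% Triton X-100, 1% formaldehyde, 1 ug/ml Hoechst) and imaged at 4×. Doses were one drug alone or a fixed anchor-drug dose plus five library-drug doses (not always all listed) in √10 steps, and values are duplicate-plate medians.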

[2] = compound: OCc1c[nH]c2ccccc12 [Indole-3-carbinol] + COc1cc2c(Oc3ccc(NC(=O)C4(C(=O)Nc5ccc(F)cc5)CC4)cc3F)ccnc2cc1OCCCN1CCOCC1 [Foretinib] (partner 0.25 µM)
Summary of the method: as §1

[3] = compound: OCc1c[nH]c2ccccc12 [Indole-3-carbinol] + Cc1cc(Nc2cc(N3CCN(C)CC3)nc(Sc3ccc(NC(=O)C4CC4)cc3)n2)n[nH]1 [Tozasertib] (partner 0.1 µM)
Summary of the method: as §1

[4] = compound: OCc1c[nH]c2ccccc12 [Indole-3-carbinol] + Cc1nc(Nc2ncc(C(=O)Nc3c(C)cccc3Cl)s2)cc(N2CCN(CCO)CC2)n1 [Dasatinib] (partner 0.075 µM)
Summary of the method: as §1

[5] = compound: OCc1c[nH]c2ccccc12 [Indole-3-carbinol] + Nc1ncn([C@H]2C[C@H](O)[C@@H](CO)O2)c(=O)n1 [Decitabine] (partner 2 µM)
Summary of the method: as §1

| Cell Line | relative viability ([1]; first compound 0.253 µM) | relative viability ([1]; first compound 0.8 µM) | relative viability ([1]; first compound 2.53 µM) | relative viability ([1]; first compound 8 µM) | relative viability ([2]; first compound 0.253 µM) | relative viability ([2]; first compound 0.8 µM) | relative viability ([2]; first compound 2.53 µM) | relative viability ([2]; first compound 8 µM) | relative viability ([3]; first compound 0.253 µM) | relative viability ([3]; first compound 0.8 µM) | relative viability ([3]; first compound 2.53 µM) | relative viability ([3]; first compound 8 µM) | relative viability ([4]; first compound 0.253 µM) | relative viability ([4]; first compound 0.8 µM) | relative viability ([4]; first compound 2.53 µM) | relative viability ([4]; first compound 8 µM) | relative viability ([5]; first compound 0.253 µM) | relative viability ([5]; first compound 0.8 µM) | relative viability ([5]; first compound 2.53 µM) | relative viability ([5]; first compound 8 µM) |
| --- | --- | --- | --- | --- | --- | --- | --- | --- | --- | --- | --- | --- | --- | --- | --- | --- | --- | --- | --- | --- |
| NCI-H1734 | 0.899 | 0.876 | 0.801 | 0.727 | 0.91 | 0.802 | 0.887 | 0.674 | 0.276 | 0.263 | 0.259 | 0.27 | 0.441 | 0.458 | 0.542 | 0.399 | 0.51 | 0.456 | 0.477 | 0.46 |
| NCI-H1755 | 1.02 | 1.01 | 0.975 | 0.984 | 0.982 | 0.953 | 0.895 | 0.895 | 0.642 | 0.592 | 0.647 | 0.535 | 0.441 | 0.456 | 0.706 | 0.364 | 0.737 | 0.686 | 0.725 | 0.638 |
| NCI-H1793 | 0.423 | 0.402 | 0.508 | 0.393 | 0.728 | 0.78 | 0.685 | 0.656 | 0.332 | 0.389 | 0.339 | 0.395 | 0.433 | 0.422 | 0.435 | 0.394 | 0.502 | 0.465 | 0.472 | 0.479 |
| NCI-H1915 | 0.753 | 0.787 | 0.768 | 0.762 | 1.03 | 1.08 | 1.06 | 1.01 | 0.409 | 0.459 | 0.449 | 0.464 | 0.285 | 0.311 | 0.328 | 0.291 | 0.255 | 0.246 | 0.275 | 0.27 |
| NCI-H1944 | 1.13 | 1.01 | 1.11 | 1.03 | 0.876 | 0.775 | 0.846 | 0.77 | 0.245 | 0.241 | 0.264 | 0.246 | 0.207 | 0.192 | 0.233 | 0.232 | 0.46 | 0.456 | 0.441 | 0.404 |
| NCI-H1975 | 1.14 | 1.27 | 1.11 | 1.08 | 0.888 | 0.977 | 1.01 | 0.873 | 0.651 | 1.03 | 0.797 | 0.88 | 0.376 | 0.426 | 0.329 | 0.35 | 0.392 | 0.38 | 0.415 | 0.436 |
| NCI-H1993 | 0.958 | 1.1 | 0.89 | 1.01 | 0.716 | 0.899 | 0.763 | 0.846 | 0.614 | 0.629 | 0.579 | 0.562 | 0.762 | 0.619 | 0.662 | 0.605 | 0.641 | 0.657 | 0.573 | 0.623 |
| NCI-H2009 | 1.16 | 1.2 | 1.18 | 1.02 | 1.18 | 1.13 | 1.21 | 1.17 | 0.691 | 0.862 | 0.737 | 0.739 | 0.316 | 0.305 | 0.33 | 0.3 | 0.406 | 0.346 | 0.376 | 0.381 |
| NCI-H2023 | 1.01 | 1.05 | 0.977 | 0.954 | 0.978 | 0.971 | 0.822 | 0.916 | 0.256 | 0.355 | 0.366 | 0.362 | 0.576 | 0.529 | 0.578 | 0.532 | 0.213 | 0.213 | 0.212 | 0.198 |
| NCI-H2085 | 1.1 | 1.02 | 1.15 | 1.05 | 0.781 | 1.11 | 0.879 | 0.865 | 0.848 | 0.914 | 0.887 | 0.79 | 0.259 | 0.225 | 0.256 | 0.262 | 0.5 | 0.63 | 0.483 | 0.506 |
| NCI-H2087 | 1.04 | 1.22 | 1.02 | 0.967 | 1.08 | 1.47 | 1.18 | 1.13 | 0.214 | 0.294 | 0.283 | 0.296 | 0.985 | 0.942 | 0.936 | 0.78 | 0.278 | 0.323 | 0.255 | 0.341 |
| NCI-H2126 | 0.824 | 0.872 | 0.865 | 0.83 | 1.05 | 1.23 | 1.25 | 1.06 | 0.849 | 0.876 | 0.793 | 0.866 | 0.618 | 0.683 | 0.592 | 0.632 | 0.6 | 0.601 | 0.547 | 0.54 |
| NCI-H2170 | 0.577 | 0.766 | 0.682 | 0.607 | 1.04 | 0.861 | 0.815 | 0.943 | 0.703 | 0.712 | 0.79 | 0.717 | 0.588 | 0.644 | 0.703 | 0.594 | 0.505 | 0.494 | 0.446 | 0.473 |
| NCI-H2347 | 0.765 | 0.782 | 0.814 | 0.699 | 0.743 |  | 1.21 | 0.931 | 0.614 | 0.54 | 0.571 | 0.538 | 0.303 | 0.26 | 0.313 | 0.344 | 0.678 | 0.58 | 0.509 | 0.574 |
| NCI-H2405 | 1.06 | 0.563 | 0.964 | 0.837 | 1.07 | 1.07 | 1.04 | 0.997 | 0.751 | 0.806 | 0.758 | 0.776 | 0.212 | 0.211 | 0.2 | 0.214 | 0.829 | 0.711 | 0.852 | 0.635 |
| NCI-H3122 | 1.04 | 1.01 | 1.02 | 1.01 | 0.972 | 0.962 | 0.999 | 0.961 | 0.398 | 0.383 | 0.483 | 0.372 | 0.839 | 0.771 | 0.969 | 0.851 | 0.462 | 0.414 | 0.37 | 0.451 |
